Assay results published in ChEMBL document CHEMBL1129809, “N-linked glycoside/glucuronide conjugates of retinoids: acitretin” (1997).

What was measured:
Format in all cases: functional, Homo sapiens
MCF7 [1] = assay: Antiproliferative activity on MCF-7 Cell Growth was determined by measuring [3H]thymidine incorporation at the concentration of 0.1 nM
MCF7 [2] = assay: Antiproliferative activity on MCF-7 Cell Growth was determined by measuring [3H]thymidine incorporation at the concentration of 10 nM
MCF7 [3] = assay: Antiproliferative activity on MCF-7 Cell Growth was determined by measuring [3H]thymidine incorporation at the concentration of 1 uM

| Structure (SMILES) | Control (MCF7 [1]) | Control (MCF7 [2]) | Control (MCF7 [3]) |
| --- | --- | --- | --- |
| COc1cc(C)c(/C=C/C(C)=C/C=C/C(C)=C/C(=O)NC2OC(C(=O)O)C(O)C(O)C2O)c(C)c1C (centres undefined) | <50% | >50% | <50% |
| COc1cc(C)c(/C=C/C(C)=C/C=C/C(C)=C/C(=O)NC2OC(CO)C(O)C(O)C2O)c(C)c1C (centres undefined) | >50% | >100% | >100% |
| COc1cc(C)c(/C=C/C(C)=C/C=C/C(C)=C/C(=O)O)c(C)c1C [ACITRETIN] | >50% | >50% | <50% |
